Read-outs that look alike come from different tables or passages of the source.

The target in experiment [1] is T1, human EP2 receptors (Homo sapiens, UniProt P43116).
T1 construct: expressed in transfected cells; host or cells: HEK 293
Nature of the experiment: Competition binding, [3H]PGE2, HEK 293 cells stably expressing human EP2 receptors. To be noted: Table 2; unit inferred; read-out: BINDING HEP2. Here is the method: Competition binding experiments were performed in a medium containing Hank's balanced salt solution, Hepes 20 mM, pH 7.3, membranes (∼60 µg protein) or 2x10^5 cells from HEK 293 cells stably expressing human EP2 receptors, [^3H]PGE2 (10 nM) and various concentrations of test compounds in a total volume of 300 µl. Reaction mixtures were incubated at 23 °C for 60 min, and were filtered over Whatman GF/B filters under vacuum. Filters were washed three times with 5 ml ice-cold buffer containing 50 mM Tris/HCl (pH 7.3). Non-specific binding was estimated in the presence of excess unlabeled PGE2 (10 µM). Binding data fitted to the binding model for a single class of binding sites, using nonlinear regression analysis.
HEK-293 cells stably expressing the human or feline FP receptor, or EP1, EP2, or EP4 receptors were washed with TME buffer, scraped from the bottom of the flasks, and homogenized for 30 sec using a Brinkman PT 10/35 polytron. TME buffer was added to achieve a final 40 ml volume in the centrifuge tubes (the composition of TME is 100 mM TRIS base, 20 mM MgCl2, […]; 10N HCl is added to achieve a pH of 7.4).
The cell homogenate was centrifuged at 19000 r.p.m. for 20 min at 4° C using a Beckman Ti-60 rotor. The resultant pellet was resuspended in TME buffer to give a final 1 mg/ml protein concentration, as determined by Biorad assay. Radioligand binding competition assays vs. [^3H-]17 -phenyl PGF2α (5 nM) were performed in a 100µl volume for 60 min. Binding reactions were started by adding plasma membrane fraction. The reaction was terminated by the addition of 4 ml ice-cold TRIS-HCl buffer and rapid filtration through glass fiber GF/B filters using a Brandel cell harvester. The filters were washed 3 times with ice-cold buffer and oven dried for one hour.
[^3H-] PGE2 (specific activity 180 Ci mmol) was used as the radioligand for EP receptors. [^3H] 17-phenyl PGF2α was employed for FP receptor binding studies. Binding studies employing EP1, EP2, EP4 and FP receptors were performed in duplicate in at least three separate experiments. A 200µl assay volume was used. Incubations were for 60 min at 25°C and were terminated by the addition of 4 ml of ice-cold 50 mM TRIS-HCl, followed by rapid filtration through Whatman GF/B filters and three additional 4 ml washes in a cell harvester (Brandel). Competition studies were performed using a final concentration of 5 nM [^3H]-PGE2, or 5 nM [^3H] 17-phenyl PGF2α and non-specific binding determined with 10^-5M of unlabeled PGE2, or 17-phenyl PGF2α, according to receptor subtype studied.

Experiment [2] has as its target T2, hEP2/Gqs5 (Homo sapiens, UniProt P43116).
T2 construct: expressed in transfected cells; host or cells: HEK-293(EBNA)
Nature of the experiment: FLIPR calcium signal study, HEK-293(EBNA) cells. The class given is cell-based. Here is the method: Cells were seeded at a density of 5x10^4 cells per well in Biocoat® Poly-D-lysine-coated black-wall, clear-bottom 96-well plates (Becton-Dickinson) and allowed to attach overnight in an incubator at 37 °C. Cells were then washed two times with HBSS-HEPES buffer (Hanks Balanced Salt Solution without bicarbonate and phenol red, 20 mM HEPES, pH 7.4) using a Denley Cellwash plate washer (Labsystems). After 45 minutes of dye-loading in the dark, using the calcium-sensitive dye Fluo-4 AM at a final concentration of 2 µM, plates were washed four times with HBSS-HEPES buffer to remove excess dye leaving 100 µl in each well. Plates were re-equilibrated to 37 °C for a few minutes.
Cells were excited with an Argon laser at 488 nm, and emission was measured through a 510-570 nm bandwidth emission filter (FLIPR™, Molecular Devices, Sunnyvale, CA). […] The peak increase in fluorescence intensity was recorded for each well. […] The peak fluorescence change in each drug-containing well was then expressed relative to the controls.
Compounds were tested in a high-throughput (HTS) or concentration-response (CoRe) format. In the HTS format, forty-four compounds per plate were examined in duplicates at a concentration of 10^-5 M. To generate concentration-response curves, four compounds per plate were tested in duplicates in a concentration range between 10^-5 and 10^-11 M. The duplicate values were averaged.

[3] abbreviates: Table 2, unit inferred, read-out: FUNCTIONAL HEP2.
The mark [4] stands for this setting: Table 1, Ca2+ signal, NA means not active, read-out: FUNCTIONAL (Ca2+, EC50, nM) HEP 2.

T2 sequence (P43116 whole entry): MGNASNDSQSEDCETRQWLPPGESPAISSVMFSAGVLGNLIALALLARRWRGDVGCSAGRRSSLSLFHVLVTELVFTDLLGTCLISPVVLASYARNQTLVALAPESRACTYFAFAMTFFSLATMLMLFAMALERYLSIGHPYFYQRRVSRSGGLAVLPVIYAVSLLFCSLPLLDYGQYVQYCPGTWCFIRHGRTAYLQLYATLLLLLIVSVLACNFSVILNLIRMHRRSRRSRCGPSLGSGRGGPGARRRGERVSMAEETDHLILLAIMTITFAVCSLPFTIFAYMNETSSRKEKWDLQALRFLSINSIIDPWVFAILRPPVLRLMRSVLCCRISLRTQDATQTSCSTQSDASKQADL
T1 sequence (P43116 whole entry): as above

For `CCCCC(O)Cc1ccc([C@H]2CCC(=O)[C@@H]2CCCCCCC(=O)OC)cc1` (stereo partly shown), in experiment [1], the Ki is 4600 nM. The EC50 in experiment [2] (setting [3]) amounted to 15000 nM.

Take `CCCCC(O)Cc1ccc([C@H]2CCC(=O)[C@@H]2CCCCCCC(=O)O)cc1` (stereo partly shown): the Ki in experiment [1] was determined as 700 nM. In addition, the EC50 in experiment [2] (setting [3]) came to 343 nM.

Consider `CCCCCC(O)c1ccc([C@H]2CC[C@@H](F)[C@@H]2CCCCCCC(=O)O)cc1` (stereo partly shown), for which, in experiment [1], the Ki was 600 nM. The EC50 in experiment [2] (setting [3]) worked out at 15000 nM.

For `CCCCCC(O)c1ccc([C@H]2CC[C@@H](Cl)[C@@H]2CCCCCCC(=O)O)cc1` (stereo partly shown), the Ki in experiment [1] was found to be 1900 nM. The EC50 in experiment [2] (setting [3]) is 15000 nM.

For the molecule `CCCCC(O)c1ccc([C@H]2CCC(=O)[C@@H]2CCCCCCC(=O)O)cc1` (stereo partly shown), in experiment [1], the Ki is 1400 nM. The EC50 in experiment [2] stood at 1410 nM.

As to `CCCCC(O)c1ccc([C@H]2CCC(=O)[C@@H]2CCCCCCC(=O)OC)cc1` (stereo partly shown), the Ki in experiment [1] was found to be 15000 nM. For the same molecule, the EC50 in experiment [2] (setting [3]) worked out at 15000 nM.

Turning to `CCCCCC(O)c1ccc([C@H]2CCC(=O)[C@@H]2CCCCCCC(=O)OC)s1` (stereo partly shown), in experiment [1], the Ki was determined as 7100 nM. The EC50 in experiment [2] was 7100 nM.

`CCCCCC(O)c1ccc([C@H]2CCC(=O)[C@@H]2CCCCCCC(=O)O)s1` (stereo partly shown): the Ki in experiment [1] amounted to 600 nM. Further, in experiment [2], the EC50 was 769 nM.

As for `CCCCCC(O)c1ccc([C@H]2CCC=C2CCCCCCC(=O)O)cc1` (stereo partly shown), in experiment [1], the Ki amounted to 2810 nM. Also, the EC50 in experiment [2] (setting [3]) is 4880 nM.

Regarding `CCCC1(C(O)c2cccc([C@H]3CCC(=O)[C@@H]3C/C=C\CCCC(=O)O)c2)CCC1` (stereo partly shown) [Entry 2], the EC50 in experiment [2] (setting [4]) is 2660 nM.

On to `CC(C)(C)c1ccc([C@H]2CCC(=O)[C@@H]2C/C=C\CCCC(=O)O)cc1` [Entry 8], for which the EC50 in experiment [2] (setting [4]) amounted to 1050 nM.

With `COC(=O)CCC/C=C\C[C@H]1C(=O)CC[C@@H]1c1ccc(C(O)C2CCCCC2)cc1` (stereo partly shown) [Entry 10], the EC50 in experiment [2] (setting [4]) was greater than 10000 nM.

Consider `O=C(O)CCCCCC[C@H]1C(=O)CC[C@@H]1c1ccc(C(O)C2CCCCC2)cc1` (stereo partly shown) [Entry 13], for which the EC50 in experiment [2] (setting [4]) stood at 2050 nM.

Turning to `O=C(O)CCCCCC[C@H]1C(=O)CC[C@@H]1c1ccc(C2(O)CCC2)cc1` [Entry 17], the EC50 in experiment [2] (setting [4]) is greater than 10000 nM.

On to `O=C(O)CCC/C=C\C[C@H]1[C@H](Cl)CC[C@@H]1c1ccc(C(O)C2CCCCC2)cc1` (stereo partly shown) [Entry 19], for which the EC50 in experiment [2] (setting [4]) is 2100 nM.

As to `CCCCCC(O)c1ccc([C@H]2CCC(=O)[C@@H]2C/C=C\CCCC(=O)OC)cc1` (stereo partly shown) [drawing 96], in experiment [1], the Ki was 15000 nM. Moreover, in experiment [2] (setting [3]), the EC50 stood at 15000 nM.

Turning to `CCCCCC(O)c1ccc([C@H]2CCC(=O)[C@@H]2C/C=C\CCCC(=O)O)cc1` (stereo partly shown) [drawing 97], in experiment [1], the Ki came out at 700 nM. For the same molecule, in experiment [2] (setting [3]), the EC50 was found to be 1010 nM.

The values above are taken from EP2027081B1, “THERAPEUTIC PROSTAGLANDIN COMPOUNDS FOR THE TREATMENT OF GLAUCOMA” (ALLERGAN, INC., priority 2006, dated 2007).
